Here are results for 1 compound from patent US5696112A, “Fused heterocyclic azepines as vasopressin antagonists” (American Cyanamid Company, priority 1995, dated 1997).

Experiment [1] addresses T1, Rat Kidney Medullary V2 Receptors (vasopressin V2) (Rattus norvegicus, UniProt Q00788).
T1 construct: Medullary tissues from rat kidneys are dissected out; from tissue; host or cells: rat kidney medulla membranes
Briefly: Binding Assay to Rat Kidney Medullary V2 Receptors. The settings on record: rat kidney medullary V2, [3H]Arg8-vasopressin. As to the method:
Binding Assay to Rat Kidney Medullary V2 Receptors
Medullary tissues from rat kidneys are dissected out, cut into small pieces and let soak in a […] sodium chloride solution containing 1.0 mM EDTA with many changes of the liquid phase, until the solution is clear of blood. The tissue is homogenized in a 0.25M sucrose solution containing 1.0 mM EDTA and 0.1 mM PMSF using a Potter-Elvehjem homogenizer with a teflon pestle. The homogenate is filtered through several layers (4 layers) of cheese cloth. The filtrate is rehomogenized using a dounce homogenizer, with a tight fitting pestle. The final homogenate is contrifuged at 1500×g for 15 min. The nuclear pellet is discarded and the supernatant fluid recentrifuged at 40,000×g for 30 min. The resulting pellet formed contains a dark inner part with the exterior, slightly pink. The pink outer part is suspended in a small amount of 50.0 mMTris.HCl buffer, pH 7.4. The protein content is determined by the Lowry's method (Lowry et al, J. Biol. Chem., 1953). The membrane suspension is stored at -70° C., in 50.0 mMTris.HCl, containing 0.2% inactivated BSA and 0.1 mM PMSF in aliquots of 1.0 ml containing 10.0 mg protein per ml of suspension until use in subsequent binding experiments.
For binding experiments, the following is added in μl volume to wells of a 96 well format of a microtiter plate: 100.0 μl of 100.0 mM Tris.HCl buffer containing 0.2% heat inactivated BSA, 10.0 mM MgCl2 and a mixture of protease inhibitors: leupeptin, 1.0 mg %; aprotinin, 1.0 mg %; 1,10-phenanthroline, 2.0 mg %; trypsin inhibitor, 10.0 mg % and 0.1 mM PMSF, 20.0 μl of [^3 H]Arginine^8, vasopressin (S.A. 75.0 Ci/mmole) at 0.8 nM and the reaction initiated by the addition of 80.0 μl of tissue membranes (200.0 μg tissue protein). The plates are left undisturbed on the bench top for 120 min. to reach equilibrium. Non-specific binding is assessed in the presence of 1.0 μM of unlabeled ligand, added in 20 μl volume. For test compounds, these are solubilized in 50% dimethylsulfoxide (DMSO) and added in 20.0 μl volume to a final incubation volume of 200 μl. Upon completion of binding, the content of each well is filtered off, using a Brandel® cell Harvester (Gaithersburg, Md.). The radioactivity trapped on the filter disk by the ligand-receptor complex is assessed by liquid scintillation counting in a Packard LS Counter, with an efficiency of 65% for tritium. The data are analyzed for IC50 values by the LUNDON-2 program for competition (LUNDON SOFTWARE, OH).

Experiment [2] deals with T2, Vasopressin V1 Receptor Subtype in Human Platelet Membranes (Homo sapiens, UniProt P37288).
T2 construct: tissue Hudson Valley Blood Services, Westchester Medical Center, Valhalla, N.Y; host or cells: human platelet membranes from frozen platelet rich plasma
T2 sequence (P37288 whole entry): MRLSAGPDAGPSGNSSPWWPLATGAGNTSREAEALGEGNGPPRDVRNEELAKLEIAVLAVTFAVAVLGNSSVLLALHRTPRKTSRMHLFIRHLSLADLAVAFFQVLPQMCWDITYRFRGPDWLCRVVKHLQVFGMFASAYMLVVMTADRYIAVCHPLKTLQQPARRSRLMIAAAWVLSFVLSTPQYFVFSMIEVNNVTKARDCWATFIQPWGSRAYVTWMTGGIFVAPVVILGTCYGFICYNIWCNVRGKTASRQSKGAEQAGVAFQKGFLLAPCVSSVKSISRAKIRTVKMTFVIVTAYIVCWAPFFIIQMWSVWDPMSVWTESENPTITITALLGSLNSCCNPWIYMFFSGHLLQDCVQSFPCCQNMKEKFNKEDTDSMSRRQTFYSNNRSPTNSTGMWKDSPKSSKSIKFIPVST
Briefly: Binding to V1 Receptor Subtype in Human Platelet membranes. As to the method:
Radioligand Binding Experiments with Human Platelet Membranes
Platelet Source: Hudson Valley Blood Services, Westchester Medical Center, Valhalla, N.Y.
Platelet Membrane Preparation:
Frozen platelet rich plasma (PRP), received from the Hudson Valley Blood Services are thawed to room temperature. The tubes containing the PRP are centrifuged at 16,000×g for 10 min. at 4° C. and the supernatant fluid discarded. The platelets resuspended in an equal volume of 50.0 mMTris.HCl, pH 7.5 containing 120 mM NaCl and 20.0 mM EDTA. The suspension is recentrifuged at 16,000×g for 10 min. This washing step is repeated one more time. The wash is discarded and the lysed pellets homogenized in low ionic strength buffer of Tris.HCl, 5.0 mM, pH 7.5 containing 5.0 mM EDTA. The homogenate is centrifuged at 39,000×g for 10 min. The resulting pellet is resuspended in Tris.HCl buffer, 70.0 mM, pH 7.5 and recentrifuged at 39,000×g for 10 min. The final pellet is resuspended in 50.0 mM Tris.HCl buffer pH 7.4 containing 120 mM NaCl and 5.0 mM HCl to give 1.0-2.0 mg protein per ml of suspension.
Binding to Vasopressin V1 Receptor Subtype in Human Platelet Membranes:
In wells of a 96 well format microtiter plate, add 100 μl of 50.0 mM Tris.HCl buffer containing 0.2% BSA and a mixture of protease inhibitors (aprotinin, leupeptin etc.). Then add 20 μl of [^3 H]Ligand: (Manning or Arg^8 Vasopressin), to give final concentrations ranging from 0.01 to 10.0 nM. Initiate the binding by adding 80.0 μl of platelet suspension (approx. 100 μg protein). Mix all reagents by pipetting the mixture up and down a few times. Non-specific binding is measured in the presence of 1.0 μM of unlabeled ligand (Manning or Arg^8 Vasopressin). Let the mixture stand undisturbed at room temperature for ninety (90) min. Upon this time, rapidly filter off the incubate under vacuum suction over GF/B filters, using a Brandel® Harvester. Determine the radioactivity caught on the filter disks by the addition of liquid scintillant and counting in a liquid scintillator

The target of a further experiment is T3, oxytocin receptors (Rattus norvegicus, UniProt P70536).
T3 construct: The uteri are dissected out, cleaned of fat and connective tissues; from tissue; host or cells: uterus membranes of DES-treated female Sprague-Dawley rats
T3 sequence (P70536 1-388): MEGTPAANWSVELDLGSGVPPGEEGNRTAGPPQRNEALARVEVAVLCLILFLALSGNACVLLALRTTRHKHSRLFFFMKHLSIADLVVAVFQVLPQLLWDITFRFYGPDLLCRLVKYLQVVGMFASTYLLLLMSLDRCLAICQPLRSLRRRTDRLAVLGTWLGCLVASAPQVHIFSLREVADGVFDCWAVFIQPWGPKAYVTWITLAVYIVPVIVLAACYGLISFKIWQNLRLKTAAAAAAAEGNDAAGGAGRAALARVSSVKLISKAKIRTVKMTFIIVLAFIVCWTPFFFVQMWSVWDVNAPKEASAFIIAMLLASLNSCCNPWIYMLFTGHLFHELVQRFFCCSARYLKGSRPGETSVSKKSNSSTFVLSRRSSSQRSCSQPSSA
As to the kind of experiment: Oxytocin Receptor Binding. Set-up: species or system Sprague-Dawley rats. Particulars: 10 μM. The method, then: Oxytocin Receptor Binding
Female Sprague-Dawley rats weighing approximately 200-250 g are injected intramuscularly (i.m.) with 0.3 mg/kg of body weight of diethylstilbestrol (DES). The rats are sacrificed 18 hours later under pentobarbital anesthesia. The uteri are dissected out, cleaned of fat and connective tissues and rinsed in 50 ml of normal saline. The tissue pooled from six rats is homogenized in 50 ml of 0.01 mMTris.HCl, containing 0.5 mM dithiothreitol and 1.0 mM EDTA, adjusted to pH 7.4, using a polytron at setting 6 with three passes of 10 sec each. The homogenate is passed through two (2) layers of cheesecloth and the filtrate centrifuged at 1000×g for 10 min. The clear supernatant is removed and recentrifuged at 165,000×g for 30 min. The resulting pellet containing the oxytocin receptors is resuspended in 50.0 mM Tris.HCl containing 5.0 mM MgCl2 at pH 7.4, to give a protein concentration of 2.5 mg/ml of tissue suspension. This preparation is used in subsequent binding assays with [^3 H]Oxytocin.
Binding of 3,5-[^3 H]Oxytocin ([^3 H]OT) to its receptors is done in microtiter plates using [^3 H]OT, at various concentrations, in an assay buffer of 50.0 mM Tris.HCl, pH 7.4 and containing 5.0 mM MgCl2, and a mixture of protease inhibitors: BSA, 0.1 mg; aprotinin, 1.0 mg; 1,10-phenanthroline, 2.0 mg; […], 10.0 mg; and PMSF, 0.3 mg per 100 ml of buffer solution. Nonspecific binding is determined in the presence of 1.0 uM unlabeled OT. The binding reaction is terminated after 60 min., at 22° C., by rapid filtration through glass fiber filters using a Brandel® cell harvester (Biomedical Research and Development Laboratories, Inc., Gaithersburg, Md.). Competition experiments are conducted at equilibrium using 1.0 nM [^3 H]OT and varying the concentration of the displacing agents. The concentrations of agent displacing 50% of [^3 H]OT at its sites (IC50) are calculated by a computer assisted LUNDON-2 program (LUNDON SOFTWARE INC., Ohio, USA).

T1 sequence (Q00788 whole entry): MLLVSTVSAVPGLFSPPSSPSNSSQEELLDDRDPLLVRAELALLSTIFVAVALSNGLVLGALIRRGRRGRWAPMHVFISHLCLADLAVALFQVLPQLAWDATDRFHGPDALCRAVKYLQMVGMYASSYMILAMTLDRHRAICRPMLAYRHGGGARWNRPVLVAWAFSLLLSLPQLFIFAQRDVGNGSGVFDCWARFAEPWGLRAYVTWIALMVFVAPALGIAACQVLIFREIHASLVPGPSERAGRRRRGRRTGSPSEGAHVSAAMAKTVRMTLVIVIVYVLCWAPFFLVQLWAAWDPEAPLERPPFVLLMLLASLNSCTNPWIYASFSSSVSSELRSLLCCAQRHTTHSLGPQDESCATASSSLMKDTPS

For the compound `Cc1ccc(F)cc1C(=O)Nc1ccc(C(=O)N2CCC=Cc3sccc32)c(Cl)c1` [Example 184, N-[4-[(5,6-Dihydro-4H-thieno[3,2-b]azepin-4-yl)carbonyl]-3-chlorophenyl]-5-fluoro-2-methylbenzamide], the IC50 in experiment [1] came out at 0.03 µM; in experiment [2] it was 1.3 µM. In addition, at oxytocin receptors, at 10 µM the inhibition was 76%.

Broadly, the IC50 is the concentration that gives 50% inhibition. A lower IC50 goes with greater potency in that assay. By inhibition is commonly meant the relative decrease from the control value, in per cent. Low readings indicate little suppression, high ones strong suppression.
